The NIST ThermoML archive (doi:10.1021/je5009334)
Numbers after ± are expanded uncertainties.

Assay: xn = mol fraction of the nth substance listed
Conditions: 101 kPa, Liquid; for speed of sound: Sing-around technique in a fixed-path interferometer; for mass density: Vibrating tube method

Structure (SMILES): CCC(O)CO (stereo not given) [1,2-butanediol] + OCc1ccccc1
- speed of sound (298.15 K, x2 = 0): 1452.6 ± 1.3 m/s
- speed of sound (298.15 K, x2 = 0.1): 1460.7 ± 1.3 m/s
- speed of sound (298.15 K, x2 = 0.2): 1469.2 ± 1.3 m/s
- speed of sound (298.15 K, x2 = 0.3): 1477.2 ± 1.3 m/s
- speed of sound (298.15 K, x2 = 0.4): 1485.3 ± 1.3 m/s
- speed of sound (298.15 K, x2 = 0.5): 1493.2 ± 1.3 m/s
- speed of sound (298.15 K, x2 = 0.6): 1500.6 ± 1.3 m/s
- speed of sound (298.15 K, x2 = 0.7): 1507.6 ± 1.3 m/s
- speed of sound (298.15 K, x2 = 0.8): 1514 ± 1.3 m/s
- speed of sound (298.15 K, x2 = 0.9): 1519.9 ± 1.3 m/s
- mass density (298.15 K, x2 = 0): 998.492 ± 0.23 kg/m3
- mass density (298.15 K, x2 = 0.1): 1003.29 ± 0.23 kg/m3
- mass density (298.15 K, x2 = 0.2): 1007.97 ± 0.24 kg/m3
- mass density (298.15 K, x2 = 0.3): 1012.52 ± 0.24 kg/m3
- mass density (298.15 K, x2 = 0.4): 1016.95 ± 0.24 kg/m3
- mass density (298.15 K, x2 = 0.5): 1021.24 ± 0.25 kg/m3
- mass density (298.15 K, x2 = 0.6): 1025.4 ± 0.25 kg/m3
- mass density (298.15 K, x2 = 0.7): 1029.45 ± 0.26 kg/m3
- mass density (298.15 K, x2 = 0.8): 1033.41 ± 0.26 kg/m3
- mass density (298.15 K, x2 = 0.9): 1037.31 ± 0.26 kg/m3
- speed of sound (303.15 K, x2 = 0): 1438.2 ± 1.3 m/s
- speed of sound (303.15 K, x2 = 0.1): 1445.9 ± 1.3 m/s
- speed of sound (303.15 K, x2 = 0.2): 1454.3 ± 1.3 m/s
- speed of sound (303.15 K, x2 = 0.3): 1462.1 ± 1.3 m/s
- speed of sound (303.15 K, x2 = 0.4): 1470.3 ± 1.3 m/s
- speed of sound (303.15 K, x2 = 0.5): 1478 ± 1.3 m/s
- speed of sound (303.15 K, x2 = 0.6): 1485.2 ± 1.3 m/s
- speed of sound (303.15 K, x2 = 0.7): 1491.7 ± 1.3 m/s
- speed of sound (303.15 K, x2 = 0.8): 1498 ± 1.3 m/s
- speed of sound (303.15 K, x2 = 0.9): 1503.9 ± 1.3 m/s
- mass density (303.15 K, x2 = 0): 994.744 ± 0.23 kg/m3
- mass density (303.15 K, x2 = 0.1): 999.491 ± 0.23 kg/m3
- mass density (303.15 K, x2 = 0.2): 1004.13 ± 0.23 kg/m3
- mass density (303.15 K, x2 = 0.3): 1008.65 ± 0.24 kg/m3
- mass density (303.15 K, x2 = 0.4): 1013.06 ± 0.24 kg/m3
- mass density (303.15 K, x2 = 0.5): 1017.34 ± 0.25 kg/m3
- mass density (303.15 K, x2 = 0.6): 1021.49 ± 0.25 kg/m3
- mass density (303.15 K, x2 = 0.7): 1025.54 ± 0.25 kg/m3
- mass density (303.15 K, x2 = 0.8): 1029.5 ± 0.26 kg/m3
- mass density (303.15 K, x2 = 0.9): 1033.42 ± 0.26 kg/m3
- speed of sound (308.15 K, x2 = 0): 1423.6 ± 1.3 m/s
- speed of sound (308.15 K, x2 = 0.1): 1431.2 ± 1.3 m/s
- speed of sound (308.15 K, x2 = 0.2): 1439.4 ± 1.3 m/s
- speed of sound (308.15 K, x2 = 0.3): 1446.8 ± 1.3 m/s
- speed of sound (308.15 K, x2 = 0.4): 1454.9 ± 1.3 m/s
- speed of sound (308.15 K, x2 = 0.5): 1462.5 ± 1.3 m/s
- speed of sound (308.15 K, x2 = 0.6): 1469.4 ± 1.3 m/s
- speed of sound (308.15 K, x2 = 0.7): 1476 ± 1.3 m/s
- speed of sound (308.15 K, x2 = 0.8): 1482.2 ± 1.3 m/s
- speed of sound (308.15 K, x2 = 0.9): 1488.1 ± 1.3 m/s
- mass density (308.15 K, x2 = 0): 990.956 ± 0.23 kg/m3
- mass density (308.15 K, x2 = 0.1): 995.66 ± 0.23 kg/m3
- mass density (308.15 K, x2 = 0.2): 1000.26 ± 0.23 kg/m3
- mass density (308.15 K, x2 = 0.3): 1004.76 ± 0.23 kg/m3
- mass density (308.15 K, x2 = 0.4): 1009.14 ± 0.24 kg/m3
- mass density (308.15 K, x2 = 0.5): 1013.4 ± 0.24 kg/m3
- mass density (308.15 K, x2 = 0.6): 1017.55 ± 0.25 kg/m3
- mass density (308.15 K, x2 = 0.7): 1021.6 ± 0.25 kg/m3
- mass density (308.15 K, x2 = 0.8): 1025.58 ± 0.25 kg/m3
- mass density (308.15 K, x2 = 0.9): 1029.52 ± 0.25 kg/m3
- speed of sound (313.15 K, x2 = 0): 1409.2 ± 1.3 m/s
- speed of sound (313.15 K, x2 = 0.1): 1416.7 ± 1.3 m/s
- speed of sound (313.15 K, x2 = 0.2): 1424.4 ± 1.3 m/s
- speed of sound (313.15 K, x2 = 0.3): 1431.8 ± 1.3 m/s
- speed of sound (313.15 K, x2 = 0.4): 1439.7 ± 1.3 m/s
- speed of sound (313.15 K, x2 = 0.5): 1447.1 ± 1.3 m/s
- speed of sound (313.15 K, x2 = 0.6): 1453.9 ± 1.3 m/s
- speed of sound (313.15 K, x2 = 0.7): 1460.4 ± 1.3 m/s
- speed of sound (313.15 K, x2 = 0.8): 1466.6 ± 1.3 m/s
- speed of sound (313.15 K, x2 = 0.9): 1472.5 ± 1.3 m/s
- mass density (313.15 K, x2 = 0): 987.136 ± 0.23 kg/m3
- mass density (313.15 K, x2 = 0.1): 991.786 ± 0.23 kg/m3
- mass density (313.15 K, x2 = 0.2): 996.372 ± 0.23 kg/m3
- mass density (313.15 K, x2 = 0.3): 1000.84 ± 0.23 kg/m3
- mass density (313.15 K, x2 = 0.4): 1005.2 ± 0.24 kg/m3
- mass density (313.15 K, x2 = 0.5): 1009.46 ± 0.24 kg/m3
- mass density (313.15 K, x2 = 0.6): 1013.6 ± 0.24 kg/m3
- mass density (313.15 K, x2 = 0.7): 1017.66 ± 0.25 kg/m3
- mass density (313.15 K, x2 = 0.8): 1021.64 ± 0.25 kg/m3
- mass density (313.15 K, x2 = 0.9): 1025.6 ± 0.25 kg/m3
- speed of sound (318.15 K, x2 = 0): 1394.6 ± 1.2 m/s
- speed of sound (318.15 K, x2 = 0.1): 1401.9 ± 1.2 m/s
- speed of sound (318.15 K, x2 = 0.2): 1409.5 ± 1.3 m/s
- speed of sound (318.15 K, x2 = 0.3): 1416.7 ± 1.3 m/s
- speed of sound (318.15 K, x2 = 0.4): 1424.3 ± 1.3 m/s
- speed of sound (318.15 K, x2 = 0.5): 1431.4 ± 1.3 m/s
- speed of sound (318.15 K, x2 = 0.6): 1438.2 ± 1.3 m/s
- speed of sound (318.15 K, x2 = 0.7): 1444.8 ± 1.3 m/s
- speed of sound (318.15 K, x2 = 0.8): 1451 ± 1.3 m/s
- speed of sound (318.15 K, x2 = 0.9): 1456.9 ± 1.3 m/s
- mass density (318.15 K, x2 = 0): 983.284 ± 0.23 kg/m3
- mass density (318.15 K, x2 = 0.1): 987.894 ± 0.23 kg/m3
- mass density (318.15 K, x2 = 0.2): 992.45 ± 0.23 kg/m3
- mass density (318.15 K, x2 = 0.3): 996.891 ± 0.23 kg/m3
- mass density (318.15 K, x2 = 0.4): 1001.24 ± 0.23 kg/m3
- mass density (318.15 K, x2 = 0.5): 1005.48 ± 0.24 kg/m3
- mass density (318.15 K, x2 = 0.6): 1009.62 ± 0.24 kg/m3
- mass density (318.15 K, x2 = 0.7): 1013.68 ± 0.24 kg/m3
- mass density (318.15 K, x2 = 0.8): 1017.69 ± 0.24 kg/m3
- mass density (318.15 K, x2 = 0.9): 1021.67 ± 0.25 kg/m3
- speed of sound (323.15 K, x2 = 0): 1380 ± 1.2 m/s
- speed of sound (323.15 K, x2 = 0.1): 1387.2 ± 1.2 m/s
- speed of sound (323.15 K, x2 = 0.2): 1394.3 ± 1.2 m/s
- speed of sound (323.15 K, x2 = 0.3): 1401.7 ± 1.3 m/s
- speed of sound (323.15 K, x2 = 0.4): 1409.1 ± 1.3 m/s
- speed of sound (323.15 K, x2 = 0.5): 1416.2 ± 1.3 m/s
- speed of sound (323.15 K, x2 = 0.6): 1423.1 ± 1.3 m/s
- speed of sound (323.15 K, x2 = 0.7): 1429.5 ± 1.3 m/s
- speed of sound (323.15 K, x2 = 0.8): 1435.7 ± 1.3 m/s
- speed of sound (323.15 K, x2 = 0.9): 1441.6 ± 1.3 m/s
- mass density (323.15 K, x2 = 0): 979.394 ± 0.23 kg/m3
- mass density (323.15 K, x2 = 0.1): 983.969 ± 0.23 kg/m3
- mass density (323.15 K, x2 = 0.2): 988.488 ± 0.23 kg/m3
- mass density (323.15 K, x2 = 0.3): 992.923 ± 0.23 kg/m3
- mass density (323.15 K, x2 = 0.4): 997.257 ± 0.23 kg/m3
- mass density (323.15 K, x2 = 0.5): 1001.49 ± 0.23 kg/m3
- mass density (323.15 K, x2 = 0.6): 1005.63 ± 0.24 kg/m3
- mass density (323.15 K, x2 = 0.7): 1009.7 ± 0.24 kg/m3
- mass density (323.15 K, x2 = 0.8): 1013.72 ± 0.24 kg/m3
- mass density (323.15 K, x2 = 0.9): 1017.72 ± 0.24 kg/m3
